This is an account of results in patent US20260108546A1 (ELI LILLY AND COMPANY, priority 2024, published 2026).

The target in this test is T1, hGIP-R (Homo sapiens, UniProt P48546).
T1 construct: expressed in transfected cells; host or cells: HEK-293 clonal cell lines
T1 sequence (P48546 22-466): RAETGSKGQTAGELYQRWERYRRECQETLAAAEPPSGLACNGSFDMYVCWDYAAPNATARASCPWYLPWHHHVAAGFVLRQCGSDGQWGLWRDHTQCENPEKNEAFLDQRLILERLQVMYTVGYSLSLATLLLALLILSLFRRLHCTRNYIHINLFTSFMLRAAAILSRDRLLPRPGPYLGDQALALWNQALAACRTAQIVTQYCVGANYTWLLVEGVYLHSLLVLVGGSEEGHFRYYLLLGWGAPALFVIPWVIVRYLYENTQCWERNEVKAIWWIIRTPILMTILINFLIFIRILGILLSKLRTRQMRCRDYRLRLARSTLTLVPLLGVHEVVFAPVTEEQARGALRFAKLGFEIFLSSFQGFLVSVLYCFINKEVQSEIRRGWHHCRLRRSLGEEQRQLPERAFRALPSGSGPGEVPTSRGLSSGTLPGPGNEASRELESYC
As to the kind of experiment: Functional hGIP-R Assay (cAMP formation, HTRF). Type of test: cell-based. The following applies: for Emax: cAMP efficacy, percent of maximal response to GIP(1-42)OH, 37° C., 0.1% bovine casein, arithmetic mean ± SEM; for EC50: cAMP potency, HEK-293 cells expressing hGIP-R, incubated at 37° C. in the presence of 0.1% bovine casein, geometric mean, read-out: Human GIP-R EC50, nM (SEM, n). The essentials:
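HEK-293 cells expressing hGIP-R were given a 20-point compound series in DMEM with 0.1% casein, 250 μM IBMX, 1% DMSO, 30 min at 37 °C. cAMP was read by HTRF against a standard curve, expressed as % of human GIP (1-42) OH maximum; EC50 and Emax came from four-parameter fits.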
(cAMP levels reflect the balance of adenylyl cyclase and phosphodiesterase activity.)

The Emax is the size of the effect at its maximum, as opposed to the concentration needed. As usually defined, the EC50 is the concentration needed to bring the measured effect to its halfway point.

Turning to `CN(C(=O)[C@H]1C[C@@H]1c1ccc(-c2cnc3nn(C(F)F)cc3c2)cc1)[C@H](Cc1cnn(C)c1)C(=O)NC(C)(C)Cn1nc(C(F)(F)F)cc1-c1ccc(=O)n(C)c1` [Example 88, (1S,2S)-2-(4-(2-(Difluoromethyl)-2H-pyrazolo[3,4-b]pyridin-5-yl)phenyl)-N-methyl-N-((R)-1-((2-methyl-1-(5-(1-methyl-6-oxo-1,6-dihydropyridin-3-yl)-3-(trifluoromethyl)-1H-pyrazol-1-yl)propan-2-yl)amino)-3-(1-methyl-1H-pyrazol-4-yl)-1-oxopropan-2-yl)cyclopropane-1-carboxamide], the Emax was 116% and the EC50 is 89 nM.

In the case of `CN(C(=O)[C@H]1C[C@@H]1c1ccc(-c2cnc3nn(C(F)(F)F)cc3c2)cc1)[C@H](Cc1cnn(C)c1)C(=O)NC(C)(C)Cn1nc(C(F)(F)F)cc1-c1ccc(=O)n(C)c1` [Example 89, (1S,2S)-N-Methyl-N-((R)-1-((2-methyl-1-(5-(1-methyl-6-oxo-1,6-dihydropyridin-3-yl)-3-(trifluoromethyl)-1H-pyrazol-1-yl)propan-2-yl)amino)-3-(1-methyl-1H-pyrazol-4-yl)-1-oxopropan-2-yl)-2-(4-(2-(trifluoromethyl)-2H-pyrazolo[3,4-b]pyridin-5-yl)phenyl)cyclopropane-1-carboxamide], the Emax worked out at 32.3% and the EC50 is 152 nM.

Regarding `COCc1cn2cc(-c3ccc([C@H]4C[C@@H]4C(=O)N(C)[C@H](Cc4cnn(C)c4)C(=O)NC(C)(C)Cn4nc(C(F)(F)F)cc4-c4ccc(=O)n(C)c4)cc3)cnc2n1` [Example 90, (1S,2S)-2-(4-(2-(Methoxymethyl)imidazo[1,2-a]pyrimidin-6-yl)phenyl)-N-methyl-N-((R)-1-((2-methyl-1-(5-(1-methyl-6-oxo-1,6-dihydropyridin-3-yl)-3-(trifluoromethyl)-1H-pyrazol-1-yl)propan-2-yl)amino)-3-(1-methyl-1H-pyrazol-4-yl)-1-oxopropan-2-yl)cyclopropane-1-carboxamide], the Emax was determined as 120% and the EC50 was determined as 45.5 nM.

On to `Cc1cn2cc(-c3ccc([C@H]4C[C@@H]4C(=O)N(C)[C@H](Cc4cnn(C)c4)C(=O)NC(C)(C)Cn4nc(C(F)(F)F)cc4-c4ccc(=O)n(C)c4)cc3)cnc2n1` [Example 91, (1S,2S)-N-Methyl-N-((R)-1-((2-methyl-1-(5-(1-methyl-6-oxo-1,6-dihydropyridin-3-yl)-3-(trifluoromethyl)-1H-pyrazol-1-yl)propan-2-yl)amino)-3-(1-methyl-1H-pyrazol-4-yl)-1-oxopropan-2-yl)-2-(4-(2-methylimidazo[1,2-a]pyrimidin-6-yl)phenyl)cyclopropane-1-carboxamide], for which the Emax is 114% and the EC50 amounted to 60.9 nM.

As for `Cn1cc(C[C@@H](NC(=O)[C@H]2C[C@@H]2c2ccc(-c3cnc4nn(C)cc4c3)cc2)C(=O)NC(C)(C)Cn2nc(C(F)(F)F)cc2-c2cn[nH]n2)cn1` [Example 92, (1S,2S)-N—((R)-1-((1-(5-(2H-1,2,3-Triazol-4-yl)-3-(trifluoromethyl)-1H-pyrazol-1-yl)-2-methylpropan-2-yl)amino)-3-(1-methyl-1H-pyrazol-4-yl)-1-oxopropan-2-yl)-2-(4-(2-methyl-2H-pyrazolo[3,4-b]pyridin-5-yl)phenyl)cyclopropane-1-carboxamide], the Emax was 126 ± 1.93% and the EC50 was determined as 47.1 nM.

Turning to `Cn1cc(C[C@@H](NC(=O)[C@H]2C[C@@H]2c2ccc(-c3cnc4nn(C)cc4c3)cc2F)C(=O)NC(C)(C)Cn2nc(C(F)(F)F)cc2-c2cn[nH]n2)cn1` [Example 93, (1S,2S)-N—((R)-1-((1-(5-(2H-1,2,3-Triazol-4-yl)-3-(trifluoromethyl)-1H-pyrazol-1-yl)-2-methylpropan-2-yl)amino)-3-(1-methyl-1H-pyrazol-4-yl)-1-oxopropan-2-yl)-2-(2-fluoro-4-(2-methyl-2H-pyrazolo[3,4-b]pyridin-5-yl)phenyl)cyclopropane-1-carboxamide], the Emax was 115 ± 1.41% and the EC50 was 15.3 nM.

Take `Cc1ccc2cc(-c3ccc([C@H]4C[C@@H]4C(=O)N[C@H](Cc4cnn(C)c4)C(=O)NC(C)(C)Cn4nc(C(F)(F)F)cc4-c4cn[nH]n4)cc3)cnc2n1` [Example 94, (1S,2S)-N—((R)-1-((1-(5-(2H-1,2,3-Triazol-4-yl)-3-(trifluoromethyl)-1H-pyrazol-1-yl)-2-methylpropan-2-yl)amino)-3-(1-methyl-1H-pyrazol-4-yl)-1-oxopropan-2-yl)-2-(4-(7-methyl-1,8-naphthyridin-3-yl)phenyl)cyclopropane-1-carboxamide]: the Emax amounted to 101% and the EC50 was found to be 35.4 nM.

Take `Cn1cc(C[C@H](C(=O)NC(C)(C)Cn2nc(C(F)(F)F)cc2-c2cn[nH]n2)N2CC[C@@]3(C[C@@H]3c3ccc(-c4cnc5nn(C)cc5c4)cc3)C2=O)cn1` [Example 95, (R)—N-(1-(5-(2H-1,2,3-Triazol-4-yl)-3-(trifluoromethyl)-1H-pyrazol-1-yl)-2-methylpropan-2-yl)-3-(1-methyl-1H-pyrazol-4-yl)-2-((1R,3R)-1-(4-(2-methyl-2H-pyrazolo[3,4-b]pyridin-5-yl)phenyl)-4-oxo-5-azaspiro[2.4]heptan-5-yl)propanamide]: the Emax came out at 90 ± 2.84% and the EC50 was 48.1 nM.

Consider `Cn1cc(C[C@@H](NC(=O)[C@H]2C[C@@H]2c2ccc(-c3cnc4nn(C)cc4c3)cc2)C(=O)NC(C)(C)Cn2nc(C(F)(F)F)cc2-c2cnn3c2CNCC3)cn1` [Example 96, (1S,2S)-N—((R)-1-((2-methyl-1-(5-(4,5,6,7-tetrahydropyrazolo[1,5-a]pyrazin-3-yl)-3-(trifluoromethyl)-1H-pyrazol-1-yl)propan-2-yl)amino)-3-(1-methyl-1H-pyrazol-4-yl)-1-oxopropan-2-yl)-2-(4-(2-methyl-2H-pyrazolo[3,4-b]pyridin-5-yl)phenyl)cyclopropane-1-carboxamide], for which the Emax turned out to be 104 ± 4.57% and the EC50 is 169 nM.

Turning to `Cn1cc(C[C@@H](NC(=O)[C@H]2C[C@@H]2c2ccc(NC(=O)Nc3ccc(F)cc3)cc2)C(=O)NC(C)(C)Cc2ccc(F)cc2)cn1` [Example 97, (1S,2S)-N—((R)-1-((1-(4-Fluorophenyl)-2-methylpropan-2-yl)amino)-3-(1-methyl-1H-pyrazol-4-yl)-1-oxopropan-2-yl)-2-(4-(3-(4-fluorophenyl)ureido)phenyl)cyclopropane-1-carboxamide], the Emax stood at 96.6 ± 4.57% and the EC50 was 38.6 nM.

In the case of `Cn1cc(C[C@H](C(=O)NC(C)(C)Cn2nc(C(F)(F)F)cc2-c2ccc(=O)n(C)c2)N2CC[C@@]3(C[C@@H]3c3ccc(-c4cnc5nn(C)cc5c4)cc3)C2=O)cn1` [Example 98, (R)—N-(2-Methyl-1-(5-(1-methyl-6-oxo-1,6-dihydropyridin-3-yl)-3-(trifluoromethyl)-1H-pyrazol-1-yl)propan-2-yl)-3-(1-methyl-1H-pyrazol-4-yl)-2-((1R,3R)-1-(4-(2-methyl-2H-pyrazolo[3,4-b]pyridin-5-yl)phenyl)-4-oxo-5-azaspiro[2.4]heptan-5-yl)propanamide], the Emax amounted to 110 ± 3.22% and the EC50 was 35.5 nM.

For `Cc1cn2cc(-c3ccc([C@H]4C[C@@]45CCN([C@H](Cc4cnn(C(F)F)c4)C(=O)NC(C)(C)Cn4nc(C(F)(F)F)cc4-c4cc(F)c(=O)n(C)c4)C5=O)c(F)c3)cnc2n1` [Example 100, (2R)-3-(1-(Difluoromethyl)-1H-pyrazol-4-yl)-N-(1-(5-(5-fluoro-1-methyl-6-oxo-1,6-dihydropyridin-3-yl)-3-(trifluoromethyl)-1H-pyrazol-1-yl)-2-methylpropan-2-yl)-2-((1S,3R)-1-(2-fluoro-4-(2-methylimidazo[1,2-a]pyrimidin-6-yl)phenyl)-4-oxo-5-azaspiro[2.4]heptan-5-yl)propanamide], the Emax stood at 70.9 ± 1.67% and the EC50 is 3.47 nM.

Take `Cn1cc2cc(-c3ccc([C@H]4C[C@@]45CCN([C@H](Cc4cnn(C(F)F)c4)C(=O)NC(C)(C)Cn4nc(C(F)(F)F)cc4-c4ccc(=O)n(C)c4)C5=O)c(F)c3)cnc2n1` [Example 117, (2R)-3-(1-(Difluoromethyl)-1H-pyrazol-4-yl)-2-((1S,3R)-1-(2-fluoro-4-(2-methyl-2H-pyrazolo[3,4-b]pyridin-5-yl)phenyl)-4-oxo-5-azaspiro[2.4]heptan-5-yl)-N-(2-methyl-1-(5-(1-methyl-6-oxo-1,6-dihydropyridin-3-yl)-3-(trifluoromethyl)-1H-pyrazol-1-yl)propan-2-yl)propanamide]: the Emax was found to be 56 ± 3.91% and the EC50 was found to be 4.39 nM.

For the molecule `[2H]C([2H])([2H])n1cc(-c2cc(C(F)(F)F)nn2CC(C)(C)NC(=O)[C@@H](Cc2cnn(C(F)F)c2)N2CC[C@@]3(C[C@@H]3c3ccc(-c4cnc5nn(C)cc5c4)cc3)C2=O)ccc1=O` [Example 120, (R)-3-(1-(Difluoromethyl)-1H-pyrazol-4-yl)-N-(2-methyl-1-(5-(1-(methyl-d3)-6-oxo-1,6-dihydropyridin-3-yl)-3-(trifluoromethyl)-1H-pyrazol-1-yl)propan-2-yl)-2-((1R,3R)-1-(4-(2-methyl-2H-pyrazolo[3,4-b]pyridin-5-yl)phenyl)-4-oxo-5-azaspiro[2.4]heptan-5-yl)propanamide], the Emax was 72.4 ± 2.16% and the EC50 worked out at 33.5 nM.
